Activity calls are given as the source filed them. No cut-off for these calls is given here.
Legend:
[1] = target: Proto-oncogene tyrosine-protein kinase ROS (Homo sapiens, UniProt P08922); experiment: Inhibition of ROS (unknown origin) at 0.1 uM
[2] = test system: T1, Receptor-type tyrosine-protein kinase FLT3 (Homo sapiens), P36888 [D835Y]; experiment: Inhibition of FLT3-D835Y mutant (unknown origin) expressed in mouse BaF3 cells assessed as decrease in STAT5 phosphorylation at 1 nM by Western blot analysis; assay type: cell-based
T1 sequence (whole entry): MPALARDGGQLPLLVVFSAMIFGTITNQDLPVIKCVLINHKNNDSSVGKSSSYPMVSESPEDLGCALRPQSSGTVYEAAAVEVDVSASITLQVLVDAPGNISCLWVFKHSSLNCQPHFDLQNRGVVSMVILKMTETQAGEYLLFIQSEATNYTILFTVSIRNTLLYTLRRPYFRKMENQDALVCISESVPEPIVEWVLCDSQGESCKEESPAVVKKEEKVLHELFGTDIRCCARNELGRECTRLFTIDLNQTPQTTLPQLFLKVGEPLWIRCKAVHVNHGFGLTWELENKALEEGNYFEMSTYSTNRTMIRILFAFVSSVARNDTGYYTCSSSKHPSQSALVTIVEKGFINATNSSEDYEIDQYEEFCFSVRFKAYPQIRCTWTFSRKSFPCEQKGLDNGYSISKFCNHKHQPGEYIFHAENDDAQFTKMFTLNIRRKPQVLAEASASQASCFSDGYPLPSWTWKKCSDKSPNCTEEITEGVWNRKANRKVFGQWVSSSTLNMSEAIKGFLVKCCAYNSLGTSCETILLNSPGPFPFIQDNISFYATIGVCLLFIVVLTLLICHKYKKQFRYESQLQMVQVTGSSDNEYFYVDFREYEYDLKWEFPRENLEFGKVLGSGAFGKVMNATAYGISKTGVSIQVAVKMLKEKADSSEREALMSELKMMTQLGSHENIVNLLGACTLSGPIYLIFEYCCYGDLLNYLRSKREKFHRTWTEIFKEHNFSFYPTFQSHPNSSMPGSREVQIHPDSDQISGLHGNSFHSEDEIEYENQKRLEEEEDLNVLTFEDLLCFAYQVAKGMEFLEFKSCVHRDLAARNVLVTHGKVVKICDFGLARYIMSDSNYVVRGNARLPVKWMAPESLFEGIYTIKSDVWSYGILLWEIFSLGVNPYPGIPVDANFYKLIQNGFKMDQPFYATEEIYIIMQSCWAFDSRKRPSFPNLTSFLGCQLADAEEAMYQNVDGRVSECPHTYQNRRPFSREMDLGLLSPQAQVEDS

MDA-MB-231 [3] = experiment: Induction of apoptosis in human MDA-MB-231 cells assessed apoptotic cell death at 10 uM incubated for 24 hrs by Annexin-V/PI analysis; assay type: functional, cell-based
MDA-MB-231 [4] = experiment: Antimetastatic activity against human MDA-MB-231 cells expressing firefly luciferase xenografted NSG orthotopic mouse model assessed as suppression of lymphogenous metastasis at 70 mg/kg, po once daily measured for 2 weeks; assay type: functional, organism-based
HCT-116 [5] = experiment: Antiinvasive activity in human HCT-116 cells assessed as suppression of invasion at 1 uM measured after 12 hrs by trans well experiment; assay type: functional
BaF3 [6] = experiment: Antiproliferative activity against mouse Ba/F3 cells harbouring FLT3 ITD D835Y mutant assessed as growth inhibition measured after 72 hrs by CellTiter-Glo assay; assay type: functional; details: Mus musculus, BaF3
[7] = target: Casein kinase II subunit alpha (Homo sapiens, UniProt P68400); experiment: Inhibition of CK2alpha1 (unknown origin) at 0.1 uM
Chain of Casein kinase II subunit alpha (P68400 whole entry, looked up): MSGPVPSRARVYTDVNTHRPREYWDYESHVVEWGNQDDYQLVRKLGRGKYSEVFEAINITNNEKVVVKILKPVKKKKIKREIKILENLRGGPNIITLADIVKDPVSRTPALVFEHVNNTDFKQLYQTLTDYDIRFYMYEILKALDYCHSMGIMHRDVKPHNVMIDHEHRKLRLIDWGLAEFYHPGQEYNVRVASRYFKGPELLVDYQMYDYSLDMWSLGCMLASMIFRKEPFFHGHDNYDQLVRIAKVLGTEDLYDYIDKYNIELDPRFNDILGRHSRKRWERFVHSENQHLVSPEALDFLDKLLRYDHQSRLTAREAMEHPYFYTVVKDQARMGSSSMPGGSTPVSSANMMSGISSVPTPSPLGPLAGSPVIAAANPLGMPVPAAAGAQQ

CYP2D6 = CYP2D6 (Homo sapiens, UniProt P10635); experiment: Inhibition of CYP2D6 (unknown origin) at 10 uM relative to control; assay type: ADME
Chain of CYP2D6 (P10635 whole entry): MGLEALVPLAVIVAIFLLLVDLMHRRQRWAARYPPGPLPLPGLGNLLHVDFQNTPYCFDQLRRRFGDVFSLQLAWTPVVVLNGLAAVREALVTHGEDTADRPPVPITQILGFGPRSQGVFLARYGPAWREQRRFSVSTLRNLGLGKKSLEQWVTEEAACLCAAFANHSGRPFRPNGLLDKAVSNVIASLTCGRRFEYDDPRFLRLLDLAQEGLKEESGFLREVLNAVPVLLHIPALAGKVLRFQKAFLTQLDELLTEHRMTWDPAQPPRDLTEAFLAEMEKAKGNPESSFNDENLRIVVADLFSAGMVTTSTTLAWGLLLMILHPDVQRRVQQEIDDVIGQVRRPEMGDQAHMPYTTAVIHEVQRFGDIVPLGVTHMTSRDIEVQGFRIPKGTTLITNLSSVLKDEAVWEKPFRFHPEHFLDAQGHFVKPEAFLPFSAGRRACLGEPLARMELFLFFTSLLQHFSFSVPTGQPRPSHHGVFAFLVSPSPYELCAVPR

[8] = test system: T1, Receptor-type tyrosine-protein kinase FLT3 (Homo sapiens), P36888 [D835Y]; experiment: Inhibition of FLT3-D835Y mutant (unknown origin) expressed in mouse Ba/F3 cells assessed as decrease in STAT5 phosphorylation at 10 nM by Western blot analysis; assay type: cell-based; details: BaF3
[9] = target: Mitogen-activated protein kinase; ERK1/ERK2 (Homo sapiens) (UniProt P27361+P28482); experiment: Inhibition of ERK1/2 autophosphorylation in human MDA-MB-231 cells at 0.5 to 5 uM incubated for 24 hrs by Western blot analysis; assay type: cell-based; details: dose 0.5-5 µM
Chain of Mitogen-activated protein kinase; ERK1/ERK2 (Homo sapiens) (P27361 whole entry, looked up): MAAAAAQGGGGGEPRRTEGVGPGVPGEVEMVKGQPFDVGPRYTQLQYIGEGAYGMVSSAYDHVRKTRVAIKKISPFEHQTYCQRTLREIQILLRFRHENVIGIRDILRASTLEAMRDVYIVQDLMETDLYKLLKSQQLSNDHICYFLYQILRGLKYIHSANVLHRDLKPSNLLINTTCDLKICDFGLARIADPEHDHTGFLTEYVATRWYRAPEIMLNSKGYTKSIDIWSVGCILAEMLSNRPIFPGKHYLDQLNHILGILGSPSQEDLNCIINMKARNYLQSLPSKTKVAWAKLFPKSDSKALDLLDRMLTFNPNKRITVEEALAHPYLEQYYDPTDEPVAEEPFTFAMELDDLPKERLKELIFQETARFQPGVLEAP
Chain of Mitogen-activated protein kinase; ERK1/ERK2 (Homo sapiens) (P28482 whole entry, looked up): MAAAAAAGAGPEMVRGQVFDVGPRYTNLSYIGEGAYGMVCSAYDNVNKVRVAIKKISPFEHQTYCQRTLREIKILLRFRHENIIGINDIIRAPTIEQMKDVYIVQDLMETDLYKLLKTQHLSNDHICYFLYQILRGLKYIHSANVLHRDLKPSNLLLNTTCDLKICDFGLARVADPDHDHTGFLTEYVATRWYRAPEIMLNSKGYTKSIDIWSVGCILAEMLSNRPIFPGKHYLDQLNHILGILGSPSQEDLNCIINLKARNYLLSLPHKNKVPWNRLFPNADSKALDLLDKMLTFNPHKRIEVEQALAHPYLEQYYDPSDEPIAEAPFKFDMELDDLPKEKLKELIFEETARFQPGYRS

MDA-MB-231 [10] = experiment: Antimetastatic activity against human MDA-MB-231 cells expressing firefly luciferase xenografted NSG orthotopic mouse model assessed as reduction in luminescence intensity at 40 to 70 mg/kg, po once daily measured for 2 weeks; assay type: functional, organism-based; details: dose 40-70 mg/kg
Focal adhesion kinase 1 [11] = target: T2, Focal adhesion kinase 1 (Homo sapiens, UniProt Q05397); experiment: Inhibition of FAK in human HCT-116 cells assessed as inhibition of Pyk2 phosphorylation at 0.5 to 5 uM incubated for 24 hrs by Western blot analysis; assay type: cell-based; details: dose 0.5-5 µM
Target sequence in this assay (Q05397 2-1052 limits assumed): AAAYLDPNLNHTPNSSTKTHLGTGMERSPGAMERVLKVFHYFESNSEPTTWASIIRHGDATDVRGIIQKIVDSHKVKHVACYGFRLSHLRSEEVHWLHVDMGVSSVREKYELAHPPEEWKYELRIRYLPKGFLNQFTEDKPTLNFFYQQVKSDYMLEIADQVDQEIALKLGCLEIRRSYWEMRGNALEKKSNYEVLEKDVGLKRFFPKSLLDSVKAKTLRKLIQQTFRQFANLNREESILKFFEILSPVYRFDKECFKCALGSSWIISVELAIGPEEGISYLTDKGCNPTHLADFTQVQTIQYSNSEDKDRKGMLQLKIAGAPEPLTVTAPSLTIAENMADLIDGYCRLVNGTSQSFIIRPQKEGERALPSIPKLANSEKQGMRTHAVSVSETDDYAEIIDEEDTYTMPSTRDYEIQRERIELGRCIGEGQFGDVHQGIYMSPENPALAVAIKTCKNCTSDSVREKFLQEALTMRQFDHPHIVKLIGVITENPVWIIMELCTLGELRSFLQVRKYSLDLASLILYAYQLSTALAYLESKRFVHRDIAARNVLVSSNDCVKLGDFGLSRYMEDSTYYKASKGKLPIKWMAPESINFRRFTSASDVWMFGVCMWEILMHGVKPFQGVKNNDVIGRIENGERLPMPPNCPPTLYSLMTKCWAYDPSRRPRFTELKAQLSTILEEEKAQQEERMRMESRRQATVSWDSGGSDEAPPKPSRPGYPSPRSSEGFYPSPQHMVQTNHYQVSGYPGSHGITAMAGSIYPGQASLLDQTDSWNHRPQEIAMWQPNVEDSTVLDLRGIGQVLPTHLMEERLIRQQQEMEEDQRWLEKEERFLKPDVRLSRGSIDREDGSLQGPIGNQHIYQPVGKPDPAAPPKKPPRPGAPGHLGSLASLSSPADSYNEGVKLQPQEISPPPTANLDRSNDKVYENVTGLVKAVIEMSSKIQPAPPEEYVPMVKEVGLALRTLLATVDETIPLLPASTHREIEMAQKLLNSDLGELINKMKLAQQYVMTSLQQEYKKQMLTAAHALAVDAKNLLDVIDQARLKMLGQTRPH

[12] = Inhibition of FYK Y379 mutant phosphorylation in human MDA-MB-231 cells by in-cell western blot assay; assay type: cell-based
HCT-116 [13] = experiment: Antiproliferative activity against human HCT-116 cells assessed as growth inhibition measured after 72 hrs by CellTiter-Glo assay; assay type: functional; details: Homo sapiens, HCT-116
BaF3 [14] = experiment: Inhibition of FLT3-ITD/[…] mutant (unknown origin) expressed in mouse Ba/F3 cells assessed as decrease in autophosphorylation at 10 nM by Western blot analysis; assay type: cell-based; details: Homo sapiens
HCT-116 [15] = experiment: Growth inhibition of anchorage-Independent human HCT-116 cells assessed as decrease in size incubated for 72 hrs by MTT assay; assay type: functional, cell-based; details: dose 1-10 µM
MDA-MB-231 [16] = experiment: Induction of apoptosis in human MDA-MB-231 cells assessed as cleaved PARP at 0.1 to 10 uM incubated for 24 hrs by Western blot analysis; assay type: functional, cell-based; details: dose 0.1-10 µM
MDA-MB-231 [17] = experiment: Induction of apoptosis in human MDA-MB-231 cells assessed as cleaved caspase-3 at 0.1 to 10 uM incubated for 24 hrs by Western blot analysis; assay type: functional, cell-based; details: dose 0.1-10 µM
[18] = target: Tyrosine-protein kinase JAK3 (Homo sapiens) (UniProt P52333); experiment: Inhibition of JAK3 (unknown origin) at 0.1 uM
Chain of Tyrosine-protein kinase JAK3 (Homo sapiens) (P52333 whole entry): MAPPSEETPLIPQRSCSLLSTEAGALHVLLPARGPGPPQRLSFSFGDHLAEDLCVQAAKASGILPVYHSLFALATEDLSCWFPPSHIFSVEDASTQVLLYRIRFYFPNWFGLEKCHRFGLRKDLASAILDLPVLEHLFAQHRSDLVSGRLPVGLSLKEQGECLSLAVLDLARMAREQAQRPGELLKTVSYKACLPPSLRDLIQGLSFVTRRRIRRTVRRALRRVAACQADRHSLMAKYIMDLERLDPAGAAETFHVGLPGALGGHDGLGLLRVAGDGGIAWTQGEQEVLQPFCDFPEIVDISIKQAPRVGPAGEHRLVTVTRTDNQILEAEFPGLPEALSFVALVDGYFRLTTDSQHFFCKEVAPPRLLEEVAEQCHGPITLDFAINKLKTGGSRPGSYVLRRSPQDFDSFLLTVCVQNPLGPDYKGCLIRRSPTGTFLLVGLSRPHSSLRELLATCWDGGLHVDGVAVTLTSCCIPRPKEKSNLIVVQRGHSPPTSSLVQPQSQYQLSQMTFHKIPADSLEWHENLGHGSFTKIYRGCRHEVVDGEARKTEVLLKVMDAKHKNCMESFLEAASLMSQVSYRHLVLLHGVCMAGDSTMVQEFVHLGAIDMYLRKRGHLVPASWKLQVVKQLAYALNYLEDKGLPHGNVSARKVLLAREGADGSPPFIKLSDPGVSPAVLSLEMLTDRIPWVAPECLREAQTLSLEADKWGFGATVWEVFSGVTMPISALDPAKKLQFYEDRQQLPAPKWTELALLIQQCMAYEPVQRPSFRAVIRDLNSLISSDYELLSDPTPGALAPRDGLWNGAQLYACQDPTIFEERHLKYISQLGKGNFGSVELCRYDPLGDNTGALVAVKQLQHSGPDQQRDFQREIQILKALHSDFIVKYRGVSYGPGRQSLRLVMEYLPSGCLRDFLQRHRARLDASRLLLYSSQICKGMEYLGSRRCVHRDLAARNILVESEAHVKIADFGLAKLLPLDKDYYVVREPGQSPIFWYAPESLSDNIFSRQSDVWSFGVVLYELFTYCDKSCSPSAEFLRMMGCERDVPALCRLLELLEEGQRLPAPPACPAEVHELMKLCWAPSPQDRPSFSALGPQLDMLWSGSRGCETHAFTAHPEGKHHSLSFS

MDA-MB-231 [19] = experiment: Antitumor activity against human MDA-MB-231 cells xenografted in Balb/c mouse assessed as decrease in ki67 at 40 to 70 mg/kg, po once daily measured for 16 days by Immunohistochemical analysis; assay type: functional, organism-based; details: dose 40-70 mg/kg, time 16.0 day
[20] = target: Proto-oncogene tyrosine-protein kinase receptor Ret (Homo sapiens, UniProt P07949); experiment: Inhibition of RET (unknown origin)
HCT-116 [21] = experiment: Growth inhibition of anchorage-Independent human HCT-116 cells assessed as decrease in number of colonies at 1 uM incubated for 72 hrs by MTT assay relative to control; assay type: functional, cell-based
MDA-MB-231 [22] = experiment: In vivo antitumor activity against human MDA-MB-231 cells xenografted in Balb/c mouse assessed as tumor volume at 40 mg/kg, po once daily measured for 16 days (reference value: 600 mm^3); assay type: functional; details: time 16 day
[23] = Antimigratory activity in human HCT-116 cells assessed as suppression of migration at 1 uM measured after 12 hrs by scratch wound healing assay; assay type: functional
Focal adhesion kinase 1 [24] = target: T2, Focal adhesion kinase 1; experiment: Inhibition of FAK (unknown origin)
[25] = target: Tyrosine-protein kinase JAK1 (Homo sapiens, UniProt P23458); experiment: Inhibition of JAK1 (unknown origin) at 0.1 uM
Chain of Tyrosine-protein kinase JAK1 (P23458 whole entry): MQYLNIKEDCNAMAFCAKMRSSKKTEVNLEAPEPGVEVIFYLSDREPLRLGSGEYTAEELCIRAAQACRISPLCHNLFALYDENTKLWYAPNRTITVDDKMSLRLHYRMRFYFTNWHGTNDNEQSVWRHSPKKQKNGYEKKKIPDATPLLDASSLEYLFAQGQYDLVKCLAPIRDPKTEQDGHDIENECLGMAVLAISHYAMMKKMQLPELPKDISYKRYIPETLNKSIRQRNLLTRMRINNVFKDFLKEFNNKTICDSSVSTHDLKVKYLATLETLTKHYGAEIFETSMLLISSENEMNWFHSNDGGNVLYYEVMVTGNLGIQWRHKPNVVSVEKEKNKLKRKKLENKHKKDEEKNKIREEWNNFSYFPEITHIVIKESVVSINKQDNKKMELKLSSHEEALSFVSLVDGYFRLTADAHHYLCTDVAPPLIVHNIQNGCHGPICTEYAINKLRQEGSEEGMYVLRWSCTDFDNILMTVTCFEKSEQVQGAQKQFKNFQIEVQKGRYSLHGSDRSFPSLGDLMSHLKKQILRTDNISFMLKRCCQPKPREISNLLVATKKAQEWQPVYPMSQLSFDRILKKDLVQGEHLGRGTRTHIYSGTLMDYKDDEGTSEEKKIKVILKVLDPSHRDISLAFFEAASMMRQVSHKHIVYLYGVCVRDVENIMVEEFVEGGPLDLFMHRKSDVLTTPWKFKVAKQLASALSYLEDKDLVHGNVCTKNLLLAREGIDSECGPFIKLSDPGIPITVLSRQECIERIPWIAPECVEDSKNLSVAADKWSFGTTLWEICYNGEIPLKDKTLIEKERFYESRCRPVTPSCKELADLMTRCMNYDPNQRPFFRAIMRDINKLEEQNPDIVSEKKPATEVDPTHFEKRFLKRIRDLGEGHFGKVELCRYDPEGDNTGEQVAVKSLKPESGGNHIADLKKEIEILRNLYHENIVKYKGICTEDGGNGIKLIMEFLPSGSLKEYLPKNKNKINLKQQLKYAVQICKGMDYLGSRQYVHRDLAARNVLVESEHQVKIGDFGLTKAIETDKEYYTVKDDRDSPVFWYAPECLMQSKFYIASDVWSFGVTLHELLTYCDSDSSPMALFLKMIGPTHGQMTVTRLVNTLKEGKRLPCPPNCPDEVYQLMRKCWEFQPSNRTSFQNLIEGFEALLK

With `CCN1CCN(c2ccc(Nc3ncc4scc(-c5cccc(NS(C)(=O)=O)c5)c4n3)cc2)CC1` the inhibition [1] was 92.9%, the inhibition [2] was “Active” and the Activity (MDA-MB-231 [3]) was “Active”. The Activity (MDA-MB-231 [4]) was “Active”, the inhibition at 1 µM (HCT-116 [5]) was 50% and the GI50 (BaF3 [6]) was 5.7 nM. For the same compound, the inhibition [7] was 95.5%, the inhibition at 10 µM (CYP2D6) was 100% and the inhibition [8] was 100%. The inhibition [9] was “inactive”, the Activity (MDA-MB-231 [10]) was “Active” and the inhibition (Focal adhesion kinase 1 [11]) was “Active”. For the same compound, the IC50 [12] was 260 nM, the GI50 (HCT-116 [13]) was 160 nM and the inhibition (BaF3 [14]) was 100%. For the same compound, the “growth inhibition (GI)” value (HCT-116 [15]) was “Active”, the Activity (MDA-MB-231 [16]) was “Active” and the Activity (MDA-MB-231 [17]) was “Active”. The inhibition [18] was 96.7%, the Activity (MDA-MB-231 [19]) was “Active” and the IC50 [20] was 2.9 nM. For the same compound, the “growth inhibition (GI)” value (HCT-116 [21]) was “Active”, the Activity (MDA-MB-231 [22]) was 400 mm3 and the inhibition at 1 µM [23] was 50%. It also gave an IC50 (Focal adhesion kinase 1 [24]) of 9.7 nM and an inhibition [25] of 93.8%.

Reference: ChEMBL document CHEMBL4837239, “Identification of Thieno[3,2-d]pyrimidine Derivatives as Dual Inhibitors of Focal Adhesion Kinase and FMS-like Tyrosine Kinase 3” (J Med Chem, 2021)
